According to US20200306204A1, “TRANSDERMAL DELIVERY SYSTEM COMPRISING BUPRENORPHINE” (LTS Lohmann Therapie-Systeme AG, priority 2011, published 2020):

Experiment: Solubility

CO[C@]12CC[C@@]3(C[C@@H]1[C@](C)(O)C(C)(C)C)[C@H]1Cc4ccc(O)c5c4[C@@]3(CCN1CC1CC1)[C@H]2O5 [Buprenorphine, (5R,6R,7R,9R,13S,14S)-17-Cyclopropylmethyl-7-[(S)-3,3-dimethyl-2-hydroxybutan-2-yl]-6-methoxy-4,5-epoxy-6,14-ethanomorphinan-3-ol]
Solubility in polysiloxanes: extremely low solubility
